According to publication PMC6009590 (The Journal of Infectious Diseases, 2018):
[ ]: non-standard residue; d: D form. The star is where a group is joined. X1 = CC(C)CCC[C@@H](C)[C@H]1CC[C@H]2[C@@H]3CC=C4C[C@@H](OC(=O)C*)CC[C@]4(C)[C@H]3CC[C@]12C; PEG4 = NCCOCCOCCOCCOCCC(=O)O

What was measured:
proteinase K [1] = molecular target: T1, proteinase K (Parengyodontium album, UniProt P06873); conditions: isolated enzyme proteinase k, pH 7.5
[2] = in vivo
proteinase K [3] = molecular target: T1, proteinase K; assay: in vitro; conditions: isolated enzyme proteinase k, pH 7.5

T1 sequence (P06873 106-384): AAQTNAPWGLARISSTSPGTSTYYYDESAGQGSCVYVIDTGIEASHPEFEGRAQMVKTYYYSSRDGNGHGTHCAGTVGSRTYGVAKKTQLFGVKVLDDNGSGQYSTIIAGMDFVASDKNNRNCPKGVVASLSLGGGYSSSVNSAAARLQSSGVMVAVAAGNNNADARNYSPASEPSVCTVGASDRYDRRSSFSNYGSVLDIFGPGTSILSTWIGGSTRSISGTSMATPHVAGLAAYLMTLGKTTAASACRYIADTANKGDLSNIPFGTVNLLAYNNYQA

Substance | half-life of the intact peptide fraction (proteinase K [1]) | biodistribution (lung, blood, CNS) [2] | half-life (proteinase K [3])
Ac-VALDPIDISIVLNKIKSDLEESKEWIRRSNKILDSI-GSGSG-dPEG4-C-(PEG4-Chol)2-NH2 [VIKI-dPEG4-bisChol] | 3 min |  | 
Ac-VALDPIDISIVLNKIKSDLEESKEWIRRSNKILDSI-GSGSG-dPEG4-C-(PEG4-Toco)2-NH2 [VIKI-dPEG4-bisToco] | 5 min |  | 
Ac-VALDPIDISIVLNKIKSDLEESKEWIRRSNKILDSIGSGSG[PEG4]C(X1)-NH2 [VIKI-dPEG4-Chol] |  | reached high levels in the lung | 10 min
